Assay results published in publication PMC5218480 (PLoS ONE, 2017).

Test system: MV-4-11 cells
Assay: Gene expression microarray analysis (Affymetrix PrimeView) and GSEA
Type: cell-based, human
Design: RFU PODN (11730768_x_at) / Fold change /veh PODN (11730768_x_at) / RFU LINC00158 (11744669_a_at) / Fold change /veh LINC00158 (11744669_a_at) / RFU DUSP10 (11751237_a_at) / Fold change /veh DUSP10 (11751237_a_at) / RFU ID3 (11757404_x_at) / Fold change /veh ID3 (11757404_x_at) / RFU PLEKHG5 (11737974_s_at) / Fold change /veh PLEKHG5 (11737974_s_at) / RFU LRRC4B (11730491_at) / Fold change /veh LRRC4B (11730491_at) / RFU GIMAP4 (11747438_a_at) / Fold change /veh GIMAP4 (11747438_a_at) / RFU KRT8 (11758183_x_at) / Fold change /veh KRT8 (11758183_x_at) / RFU CNN1 (11734310_a_at) / Fold change /veh CNN1 (11734310_a_at) / RFU VPS37D (11726825_at) / Fold change /veh VPS37D (11726825_at) / RFU C10orf10 (11716522_x_at) / Fold change /veh C10orf10 (11716522_x_at) / RFU KIR2DL2 /// KIR2DL4 /// KIR2DL5A /// KIR2DL5B /// KIR2DS1 /// KIR2DS2 /// KIR2DS3 /// KIR2DS4 /// KIR3DL3 /// KIR3DL3 /// KIR3DS1 (11738374_at) / Fold change /veh KIR2DL2 /// KIR2DL4 /// KIR2DL5A /// KIR2DL5B /// KIR2DS1 /// KIR2DS2 /// KIR2DS3 /// KIR2DS4 /// KIR3DL3 /// KIR3DL3 /// KIR3DS1 (11738374_at) / RFU C1QL1 (11718748_at) / Fold change /veh C1QL1 (11718748_at) / RFU TMPRSS4 (11747572_a_at) / Fold change /veh TMPRSS4 (11747572_a_at) / RFU HAMP (11756126_x_at) / Fold change /veh HAMP (11756126_x_at) / RFU RNFT2 (11725882_a_at) / Fold change /veh RNFT2 (11725882_a_at) / RFU NR4A2 (11747474_a_at) / Fold change /veh NR4A2 (11747474_a_at) / RFU ABCC12 (11746883_a_at) / Fold change /veh ABCC12 (11746883_a_at) / RFU TMEM136 (11760407_x_at) / Fold change /veh TMEM136 (11760407_x_at) / RFU CLDN22 /// WWC2 (11732394_at) / Fold change /veh CLDN22 /// WWC2 (11732394_at) / RFU HLA-DPB1 (11760878_x_at) / Fold change /veh HLA-DPB1 (11760878_x_at) / RFU SPINT1 (11716480_a_at) / Fold change /veh SPINT1 (11716480_a_at) / RFU GAP43 (11754022_s_at) / Fold change /veh GAP43 (11754022_s_at) / RFU A4GNT (11735810_at) / Fold change /veh A4GNT (11735810_at) / RFU PRB3 (11715151_x_at) / Fold change /veh PRB3 (11715151_x_at) / RFU TUBB4B (11761932_at) / Fold change /veh TUBB4B (11761932_at) / RFU CAPN14 (11732068_a_at) / Fold change /veh CAPN14 (11732068_a_at) / RFU TMCC2 (11721928_a_at) / Fold change /veh TMCC2 (11721928_a_at) / RFU IRGQ (11745062_a_at) / Fold change /veh IRGQ (11745062_a_at) / RFU FAM174B (11720279_a_at) / Fold change /veh FAM174B (11720279_a_at) / RFU TMPRSS4 (11748680_a_at) / Fold change /veh TMPRSS4 (11748680_a_at) / RFU FAM212B (11763350_a_at) / Fold change /veh FAM212B (11763350_a_at) / RFU PLEKHG5 (11743358_a_at) / Fold change /veh PLEKHG5 (11743358_a_at) / RFU ZSCAN30 (11745921_a_at) / Fold change /veh ZSCAN30 (11745921_a_at) / RFU CMKLR1 (11741424_a_at) / Fold change /veh CMKLR1 (11741424_a_at) / RFU LOC101060620 /// MAPK8IP1 (11723275_at) / Fold change /veh LOC101060620 /// MAPK8IP1 (11723275_at) / RFU SPTSSB (11747773_x_at) / Fold change /veh SPTSSB (11747773_x_at) / RFU PRSS12 (11739890_at) / Fold change /veh PRSS12 (11739890_at) / RFU BIN1 (11741810_x_at) / Fold change /veh BIN1 (11741810_x_at) / RFU WNT11 (11732464_a_at) / Fold change /veh WNT11 (11732464_a_at) / RFU C10orf10 (11716521_a_at) / Fold change /veh C10orf10 (11716521_a_at) / RFU C5orf56 (11738089_at) / Fold change /veh C5orf56 (11738089_at) / RFU CYB561 (11721691_x_at) / Fold change /veh CYB561 (11721691_x_at) / RFU ANKRD19P (11752326_a_at) / Fold change /veh ANKRD19P (11752326_a_at) / RFU OR2T12 /// OR2T33 /// OR2T8 (11738714_s_at) / Fold change /veh OR2T12 /// OR2T33 /// OR2T8 (11738714_s_at) / RFU VCAN (11748164_a_at) / Fold change /veh VCAN (11748164_a_at) / RFU JSRP1 (11732532_at) / Fold change /veh JSRP1 (11732532_at) / RFU KRTAP10-11 (11738290_x_at) / Fold change /veh KRTAP10-11 (11738290_x_at) / RFU MYO3A (11730013_a_at) / Fold change /veh MYO3A (11730013_a_at) / RFU EBF3 (11725865_a_at) / Fold change /veh EBF3 (11725865_a_at) / RFU CAMK2N1 (11719241_x_at) / Fold change /veh CAMK2N1 (11719241_x_at) / RFU C5orf56 (11738088_a_at) / Fold change /veh C5orf56 (11738088_a_at) / RFU OLFML3 (11715873_a_at) / Fold change /veh OLFML3 (11715873_a_at) / RFU LOC100653217 /// NTM (11731650_a_at) / Fold change /veh LOC100653217 /// NTM (11731650_a_at) / RFU MAPK11 (11762145_a_at) / Fold change /veh MAPK11 (11762145_a_at) / RFU FIZ1 (11724087_x_at) / Fold change /veh FIZ1 (11724087_x_at) / RFU OASL (11726364_x_at) / Fold change /veh OASL (11726364_x_at) / RFU SOX15 (11748057_x_at) / Fold change /veh SOX15 (11748057_x_at) / RFU CD79A (11719716_a_at) / Fold change /veh CD79A (11719716_a_at) / RFU HIST1H1D (11736915_at) / Fold change /veh HIST1H1D (11736915_at) / RFU CASKIN2 (11723855_a_at) / Fold change /veh CASKIN2 (11723855_a_at) / RFU LOC730098 (11760151_x_at) / Fold change /veh LOC730098 (11760151_x_at) / RFU OR4N2 (11742367_at) / Fold change /veh OR4N2 (11742367_at) / RFU PRRT2 (11749266_a_at) / Fold change /veh PRRT2 (11749266_a_at) / RFU SNX32 (11753110_a_at) / Fold change /veh SNX32 (11753110_a_at) / RFU CDHR5 (11726645_a_at) / Fold change /veh CDHR5 (11726645_a_at) / RFU RCAN1 (11760418_a_at) / Fold change /veh RCAN1 (11760418_a_at) / RFU FAM167A (11723789_a_at) / Fold change /veh FAM167A (11723789_a_at) / RFU FAM26E (11764081_at) / Fold change /veh FAM26E (11764081_at) / RFU ISYNA1 (11749810_s_at) / Fold change /veh ISYNA1 (11749810_s_at) / RFU ACY1 (11761880_at) / Fold change /veh ACY1 (11761880_at) / RFU 11764098_at / Fold change /veh 11764098_at / RFU SAMD14 (11745864_x_at) / Fold change /veh SAMD14 (11745864_x_at) / RFU NPB (11741838_a_at) / Fold change /veh NPB (11741838_a_at) / RFU TMPRSS6 (11731388_a_at) / Fold change /veh TMPRSS6 (11731388_a_at) / RFU KRTAP10-2 (11738614_at) / Fold change /veh KRTAP10-2 (11738614_at) / RFU ARHGAP8 /// PRR5-ARHGAP8 (11727945_x_at) / Fold change /veh ARHGAP8 /// PRR5-ARHGAP8 (11727945_x_at) / RFU KRTAP5-7 /// NADSYN1 (11734609_at) / Fold change /veh KRTAP5-7 /// NADSYN1 (11734609_at) / RFU RASL12 (11751679_a_at) / Fold change /veh RASL12 (11751679_a_at) / RFU CDKN2B (11736163_a_at) / Fold change /veh CDKN2B (11736163_a_at) / RFU PRF1 (11729649_at) / Fold change /veh PRF1 (11729649_at) / RFU, ZNF638 /// ZNF638-IT1 / Fold change vs veh, ZNF638 /// ZNF638-IT1 / RFU, PANK3 / Fold change vs veh, PANK3 / RFU, SH3YL1 / Fold change vs veh, SH3YL1 / RFU, ZEB2 / Fold change vs veh, ZEB2 / RFU, NRIP1 / Fold change vs veh, NRIP1 / RFU, PTTG1IP / Fold change vs veh, PTTG1IP / RFU, CAPN2 / Fold change vs veh, CAPN2 / RFU, MED14 / Fold change vs veh, MED14 / RFU, SNORA58 / Fold change vs veh, SNORA58 / RFU, C1orf63 / Fold change vs veh, C1orf63 / RFU, LRRFIP1 / Fold change vs veh, LRRFIP1 / RFU, NDUFAF7 / Fold change vs veh, NDUFAF7 / RFU, SLC12A2 / Fold change vs veh, SLC12A2 / RFU, IBTK / Fold change vs veh, IBTK / RFU, ESF1 / Fold change vs veh, ESF1 / Fold change vs veh, TMEM50B / RFU, TAOK1 / Fold change vs veh, TAOK1 / RFU, ACBD3 / Fold change vs veh, ACBD3 / RFU, TMA16 / Fold change vs veh, TMA16 / RFU, RWDD3 / Fold change vs veh, RWDD3 / RFU, BCAT1 / Fold change vs veh, BCAT1 / RFU, EDEM3 / Fold change vs veh, EDEM3 / RFU, TMEM33 / Fold change vs veh, TMEM33 / RFU, WDR75 / Fold change vs veh, WDR75 / RFU, AHCTF1 / Fold change vs veh, AHCTF1 / RFU, TFRC / Fold change vs veh, TFRC / RFU, ZDHHC17 / Fold change vs veh, ZDHHC17 / RFU, NOM1 / Fold change vs veh, NOM1 / RFU, ARL8B / Fold change vs veh, ARL8B / RFU, ZBTB11 / Fold change vs veh, ZBTB11 / RFU, TAMM41 / Fold change vs veh, TAMM41 / RFU, KIAA1704 /// LOC100996395 / Fold change vs veh, KIAA1704 /// LOC100996395 / RFU, ING1 / Fold change vs veh, ING1 / RFU, TRMT61B / Fold change vs veh, TRMT61B / RFU, FUBP3 / Fold change vs veh, FUBP3 / RFU, TP53 / Fold change vs veh, TP53 / RFU, TNKS2 / Fold change vs veh, TNKS2 / RFU, ZFP14 / Fold change vs veh, ZFP14 / RFU, ACTR2 / Fold change vs veh, ACTR2 / RFU, PPP3R1 / Fold change vs veh, PPP3R1 / RFU, PIK3R1 / Fold change vs veh, PIK3R1 / RFU, HNRNPA1 / Fold change vs veh, HNRNPA1 / RFU, RNF170 / Fold change vs veh, RNF170 / RFU, ZNF28 / Fold change vs veh, ZNF28 / RFU, RNGTT / Fold change vs veh, RNGTT / RFU, OGT / Fold change vs veh, OGT / RFU, BRD1 / Fold change vs veh, BRD1 / RFU, MARS / Fold change vs veh, MARS / RFU, ZNF655 / Fold change vs veh, ZNF655 / RFU, FAHD1 / Fold change vs veh, FAHD1 / RFU, BDP1 / Fold change vs veh, BDP1 / RFU, LRRCC1 / Fold change vs veh, LRRCC1 / RFU, ARID1A / Fold change vs veh, ARID1A / RFU, ZNF146 / Fold change vs veh, ZNF146 / RFU, ZNF330 / Fold change vs veh, ZNF330 / RFU, GPN3 / Fold change vs veh, GPN3 / RFU, C9orf123 / Fold change vs veh, C9orf123 / RFU, N4BP2L2 / Fold change vs veh, N4BP2L2 / RFU, ARFIP1 / Fold change vs veh, ARFIP1 / RFU, FAM179B / Fold change vs veh, FAM179B / RFU, BCL10 / Fold change vs veh, BCL10 / RFU, UHRF1BP1L / Fold change vs veh, UHRF1BP1L / RFU, BET1 / Fold change vs veh, BET1 / RFU, CNOT2 / Fold change vs veh, CNOT2 / RFU, ZNF268 / Fold change vs veh, ZNF268 / Fold change vs veh, ZNF507 / RFU, DGCR2 / Fold change vs veh, DGCR2 / RFU, WDSUB1 / Fold change vs veh, WDSUB1 / Fold change vs veh, HSP90B1 /// MIR3652 / RFU, ADSS / Fold change vs veh, ADSS / RFU, GK / Fold change vs veh, GK / RFU, ZNF148 / Fold change vs veh, ZNF148 / RFU, TAF9 / Fold change vs veh, TAF9 / RFU, SLC1A5 / Fold change vs veh, SLC1A5 / RFU, SLMO2 / Fold change vs veh, SLMO2 / RFU, ABCC4 / Fold change vs veh, ABCC4 / RFU, LOC101060439 /// RAP1B / Fold change vs veh, LOC101060439 /// RAP1B / RFU, RFX7 / Fold change vs veh, RFX7 / RFU, GTPBP10 / Fold change vs veh, GTPBP10 / RFU, CNEP1R1 / Fold change vs veh, CNEP1R1 / RFU, BIVM-ERCC5 /// ERCC5 / Fold change vs veh, BIVM-ERCC5 /// ERCC5 / RFU, ILF3 / Fold change vs veh, ILF3 / RFU 11762660_at / Fold change /veh 11762660_at / RFU VCAN (11757783_s_at) / Fold change /veh VCAN (11757783_s_at) / RFU DDX43 (11728927_at) / Fold change /veh DDX43 (11728927_at) / RFU KRT8 (11758188_x_at) / Fold change /veh KRT8 (11758188_x_at) / RFU NKD1 (11759106_at) / Fold change /veh NKD1 (11759106_at) / RFU SRD5A1 (11742802_a_at) / Fold change /veh SRD5A1 (11742802_a_at) / RFU TPSAB1 /// TPSB2 (11721975_s_at) / Fold change /veh TPSAB1 /// TPSB2 (11721975_s_at) / RFU GSTM3 (11746129_a_at) / Fold change /veh GSTM3 (11746129_a_at) / RFU IL23R (11737362_x_at) / Fold change /veh IL23R (11737362_x_at) / RFU TMEM51 (11727254_a_at) / Fold change /veh TMEM51 (11727254_a_at) / RFU PIWIL2 (11732686_x_at) / Fold change /veh PIWIL2 (11732686_x_at) / RFU ORM1 (11744905_x_at) / Fold change /veh ORM1 (11744905_x_at) / RFU CCDC152 (11743942_at) / Fold change /veh CCDC152 (11743942_at) / RFU ECM1 (11717891_a_at) / Fold change /veh ECM1 (11717891_a_at) / RFU IL23R (11748794_a_at) / Fold change /veh IL23R (11748794_a_at) / RFU TNFAIP8L3 (11732012_x_at) / Fold change /veh TNFAIP8L3 (11732012_x_at) / RFU MBOAT4 (11741988_at) / Fold change /veh MBOAT4 (11741988_at) / RFU 11764193_at / Fold change /veh 11764193_at / RFU TMEM53 (11763286_at) / Fold change /veh TMEM53 (11763286_at) / RFU MAGEB2 (11727129_at) / Fold change /veh MAGEB2 (11727129_at) / RFU TMEM200A (11744735_a_at) / Fold change /veh TMEM200A (11744735_a_at) / RFU CCDC152 (11751479_a_at) / Fold change /veh CCDC152 (11751479_a_at) / RFU FAM211A (11726209_a_at) / Fold change /veh FAM211A (11726209_a_at) / RFU RGS16 (11746705_a_at) / Fold change /veh RGS16 (11746705_a_at) / RFU VCAN (11755009_s_at) / Fold change /veh VCAN (11755009_s_at) / RFU RHOB (11743442_s_at) / Fold change /veh RHOB (11743442_s_at) / RFU RGS16 (11720943_a_at) / Fold change /veh RGS16 (11720943_a_at) / RFU RGS16 (11720944_at) / Fold change /veh RGS16 (11720944_at) / RFU, VPS4B / Fold change vs veh, VPS4B / RFU, CREB1 / Fold change vs veh, CREB1 / RFU, DNAJC13 / Fold change vs veh, DNAJC13 / RFU, GNAQ / Fold change vs veh, GNAQ / RFU, CDK5R1 / Fold change vs veh, CDK5R1 / RFU, ZRANB3 / Fold change vs veh, ZRANB3 / RFU, CUL4A / Fold change vs veh, CUL4A / RFU, CCNY / Fold change vs veh, CCNY / RFU, UFL1 / Fold change vs veh, UFL1 / RFU, COG3 / Fold change vs veh, COG3 / RFU, DIAPH2 / Fold change vs veh, DIAPH2 / RFU, SKA2 / Fold change vs veh, SKA2 / RFU, AFF3 / Fold change vs veh, AFF3 / RFU, LMF1 / Fold change vs veh, LMF1 / RFU, IPO11 / Fold change vs veh, IPO11 / RFU, DFFB / Fold change vs veh, DFFB / RFU, FOXP1 / Fold change vs veh, FOXP1 / RFU, CARD8 / Fold change vs veh, CARD8 / RFU, STRN3 / Fold change vs veh, STRN3 / RFU, ADK / Fold change vs veh, ADK / RFU, RASSF2 / Fold change vs veh, RASSF2 / RFU, WIPF1 / Fold change vs veh, WIPF1 / RFU, LARP1B / Fold change vs veh, LARP1B / RFU, RASA1 / Fold change vs veh, RASA1 / RFU, RB1 / Fold change vs veh, RB1 / RFU, PPFIA1 / Fold change vs veh, PPFIA1 / RFU, MAT2A / Fold change vs veh, MAT2A / RFU, CCT5 / Fold change vs veh, CCT5 / RFU, WDR92 / Fold change vs veh, WDR92 / RFU, CUX1 / Fold change vs veh, CUX1 / RFU, TTC7A / Fold change vs veh, TTC7A / RFU, TMEM135 / Fold change vs veh, TMEM135 / RFU, DEPTOR / Fold change vs veh, DEPTOR / RFU, CPM / Fold change vs veh, CPM / RFU, DNAJB6 / Fold change vs veh, DNAJB6 / RFU, CACNA2D3 / Fold change vs veh, CACNA2D3 / RFU, DTX4 / Fold change vs veh, DTX4 / RFU, TFCP2 / Fold change vs veh, TFCP2 / RFU, GMCL1 /// GMCL1P1 / Fold change vs veh, GMCL1 /// GMCL1P1 / RFU, AEBP2 / Fold change vs veh, AEBP2 / RFU, SNHG1 /// SNORD22 /// SNORD25 /// SNORD26 /// SNORD27 /// SNORD28 /// SNORD29 /// SNORD31 / Fold change vs veh, SNHG1 /// SNORD22 /// SNORD25 /// SNORD26 /// SNORD27 /// SNORD28 /// SNORD29 /// SNORD31 / Fold change (Aza/veh), C12orf56 (ProbeSet 11735607_a_at) / Fold change (ACY-1035/veh), C12orf56 (ProbeSet 11735607_a_at) / Fold change (Aza/veh), FGFR1OP (ProbeSet 11751329_s_at) / Fold change (ACY-1035/veh), FGFR1OP (ProbeSet 11751329_s_at) / Fold change (Aza/veh), VPS36 (ProbeSet 11739960_a_at) / Fold change (ACY-1035/veh), VPS36 (ProbeSet 11739960_a_at) / RFU SYPL1 (11715823_x_at) / Fold change /veh SYPL1 (11715823_x_at) / RFU IGFBP7 (11715501_s_at) / Fold change /veh IGFBP7 (11715501_s_at) / RFU REEP3 (11722064_at) / Fold change /veh REEP3 (11722064_at) / RFU IGLL1 (11728026_x_at) / Fold change /veh IGLL1 (11728026_x_at): dose or concentration left out as unconfirmed
Details: gene C12orf56; Azacitidine vs DMSO; LIST F

## Nc1ncn([C@@H]2O[C@H](CO)[C@@H](O)[C@H]2O)c(=O)n1 [azacitidine]
  Fold change (Aza/veh), C12orf56 (ProbeSet 11735607_a_at): 1.01
